# Experimental data reported in US20250311727A1, “SUBSTITUTED 2-AMINOAZINES AND SALTS THEREOF, AND USE THEREOF AS HERBICIDAL ACTIVE SUBSTANCES” (BAYER AKTIENGESELLSCHAFT, priority 2022, published 2025).
# What was measured:
# Assay type in all cases: in vivo
# Abutilon theophrasti = assay: Post-emergence herbicidal efficacy at 320 g/ha, ABUTH; details: rated visually after about 3 weeks vs untreated controls, 100% = plants have died
# Description: (§1) Unwanted plants/weeds: • ABUTH: Abutilon theophrasti • ALOMY: Alopecurus myosuroides • AMARE: Amaranthus retroflexus • DIGSA: Digitaria sanguinalis • ECHCG: Echinochloa crus-galli • KCHSC: Kochia scoparia • LOLRI: Lolium rigidum • MATIN: Matricaria inodora • POAAN: Poa annua • POLCO: Polygonum convolvulus • SETVI: Setaria viridis • STEME: Stellaria media • VERPE: Veronica persica • VIOTR: Viola tricolor A. Post-Emergence Herbicidal Efficacy at 320 g/ha
# (§2) Seeds of mono- and dicotyledonous weed plants were placed in plastic pots in sandy loam soil (doubly sown with in each case one species of mono- or dicotyledonous weed plants per pot), covered with soil and cultivated in a greenhouse under controlled growth conditions. 2 to 3 weeks after sowing, the test plants were treated at the one-leaf stage. The compounds of the invention, formulated in the form of wettable powders (WP) or as emulsion concentrates (EC), were applied to the green parts of the plants as aqueous suspension or emulsion with addition of 0.5% additive at a water application rate equivalent to 600 litres per hectare. After the test plants had been kept in the greenhouse under optimum growth conditions for about 3 weeks, the activity of the preparations was rated visually in comparison to untreated controls.
# (§3) For example, 100% activity=the plants have died, 0% activity=like control plants.
# (§4) Tables A1 to A10 below show the effects of selected compounds of the general formula (I) according to Table 1 on various harmful plants and at an application rate corresponding to 320 g/ha, which were obtained by the trial procedure specified above.
# Amaranthus retroflexus [1] = assay: Post-emergence herbicidal efficacy at 320 g/ha, AMARE; details: rated visually after about 3 weeks vs untreated controls, 100% = plants have died
# Description: as §1, §2, §3, §4
# Veronica persica [2] = assay: Post-emergence herbicidal efficacy at 320 g/ha, VERPE; details: rated visually after about 3 weeks vs untreated controls, 100% = plants have died
# Description: as §1, §2, §3, §4
# Amaranthus retroflexus [3] = assay: Pre-emergence herbicide efficacy at 320 g/ha, AMARE; details: scored visually after about 3 weeks vs untreated controls, 100% = plants have died
# Description: as §1
# (§5) Seeds of mono- and dicotyledonous weed plants were placed in plastic pots in sandy loam soil (doubly sown with one species each of mono- or dicotyledonous weed plants per pot) and covered with soil. The compounds of the invention, formulated in the form of wettable powders (WP) or as emulsion concentrates (EC), were then applied to the surface of the covering soil as aqueous suspension or emulsion with addition of 0.5% additive at a water application rate of 600 litres per hectare (converted). After the treatment, the pots were placed in a greenhouse and kept under good growth conditions for the test plants. After about 3 weeks, the efficacy of the preparations was scored visually in comparison with untreated controls as percentages.
# as §3
# (§6) Tables C1 to C12 below show the effects of selected compounds of the general formula (I) according to Table 1 on various harmful plants and at an application rate corresponding to 320 g/ha, which were obtained by the trial procedure specified above.
# Setaria viridis = assay: Pre-emergence herbicide efficacy at 320 g/ha, SETVI; details: scored visually after about 3 weeks vs untreated controls, 100% = plants have died
# Description: as §1, §5, §3, §6
# Kochia scoparia [4] = assay: Post-emergence herbicidal efficacy at 320 g/ha, KCHSC; details: rated visually after about 3 weeks vs untreated controls, 100% = plants have died
# Description: as §1, §2, §3, §4
# Stellaria media [5] = assay: Post-emergence herbicidal efficacy at 320 g/ha, STEME; details: rated visually after about 3 weeks vs untreated controls, 100% = plants have died
# Description: as §1, §2, §3, §4
# Amaranthus retroflexus [6] = assay: Post-emergence herbicidal efficacy at 80 g/ha, AMARE; details: rated visually after about 3 weeks vs untreated controls, 100% = plants have died
# Description: as §1
# (§7) Seeds of monocotyledonous and dicotyledonous weeds and crop plants were placed in sandy loam in plastic or organic planting pots, covered with soil and cultivated in a greenhouse under controlled growth conditions. 2 to 3 weeks after sowing, the test plants were treated at the one-leaf stage. The compounds of the invention, formulated in the form of wettable powders (WP) or as emulsion concentrates (EC), were then sprayed onto the green parts of the plants as aqueous suspension or emulsion with addition of 0.5% additive at a water application rate of 600 l/ha (converted). After the test plants had been kept in the greenhouse under optimum growth conditions for about 3 weeks, the activity of the preparations was rated visually in comparison to untreated controls. For example, 100% activity=the plants have died, 0% activity=like control plants.
# (§8) Tables B1 to B11 below show the effects of selected compounds of the general formula (I) according to Table 1 on various harmful plants and an application rate corresponding to 80 g/ha, which were obtained by the experimental procedure mentioned above.
# Stellaria media [7] = assay: Pre-emergence herbicide efficacy at 320 g/ha, STEME; details: scored visually after about 3 weeks vs untreated controls, 100% = plants have died
# Description: as §1, §5, §3, §6
# Digitaria sanguinalis = assay: Pre-emergence herbicide efficacy at 320 g/ha, DIGSA; details: scored visually after about 3 weeks vs untreated controls, 100% = plants have died
# Description: as §1, §5, §3, §6
# Kochia scoparia [8] = assay: Pre-emergence herbicide efficacy at 320 g/ha, KCHSC; details: scored visually after about 3 weeks vs untreated controls, 100% = plants have died
# Description: as §1, §5, §3, §6
# Veronica persica [9] = assay: Pre-emergence herbicide efficacy at 320 g/ha, VERPE; details: scored visually after about 3 weeks vs untreated controls, 100% = plants have died
# Description: as §1, §5, §3, §6
# Veronica persica [10] = assay: Post-emergence herbicidal efficacy at 80 g/ha, VERPE; details: rated visually after about 3 weeks vs untreated controls, 100% = plants have died
# Description: as §1, §7, §8
SMILES,Post-emergence efficacy at 320 g/ha against AMARE in % (Amaranthus retroflexus [1]),Post-emergence efficacy at 320 g/ha against VERPE in % (Veronica persica [2]),Pre-emergence efficacy at 320 g/ha against AMARE in % (Amaranthus retroflexus [3]),Post-emergence efficacy at 320 g/ha against KCHSC in % (Kochia scoparia [4]),further results
FC(F)(F)CCCc1ccccc1Nc1ncc(Cl)cn1 [Example 1-1],90%,90%,90%,–,Post-emergence efficacy at 320 g/ha against ABUTH in % (Abutilon theophrasti): 90%; Pre-emergence efficacy at 320 g/ha against SETVI in % (Setaria viridis): 90%
Fc1cnc(Nc2ccccc2CCCC(F)(F)F)nc1 [Example 1-3],90%,90%,–,–,–
FC(F)(F)CCCSc1ccccc1Nc1ncc(Cl)cn1 [Example 1-4],90%,–,–,–,–
Fc1cnc(Nc2ccccc2SCCCC(F)(F)F)nc1 [Example 1-7],100%,100%,90%,90%,Post-emergence efficacy at 320 g/ha against ABUTH in % (Abutilon theophrasti): 90%; Post-emergence efficacy at 320 g/ha against STEME in % (Stellaria media [5]): 90%
O=S(=O)(CCCC(F)(F)F)Oc1c(F)cccc1Nc1ncc(Cl)cn1 [Example 1-14],90%,90%,90%,–,–
O=S(=O)(CCCC(F)(F)F)Oc1c(F)cccc1Nc1ncc(F)cn1 [Example 1-15],90%,90%,–,–,–
O=S(=O)(CCC(F)(F)F)Oc1c(F)cccc1Nc1ncc(Cl)cn1 [Example 1-16],–,90%,90%,–,–
O=S(=O)(CCC(F)(F)F)Oc1c(F)cccc1Nc1ncc(F)cn1 [Example 1-17],90%,–,–,–,–
Clc1ccc(-c2ccccc2Nc2ncc(Cl)cn2)cc1 [Example 1-25],–,90%,–,–,Post-emergence efficacy at 320 g/ha against STEME in % (Stellaria media [5]): 100%
Fc1ccc(-c2ccccc2Nc2ncc(Cl)cn2)cc1F [Example 1-28],100%,100%,–,–,–
N#Cc1cccc(Nc2ncc(C(F)(F)F)cn2)c1-n1cc(C(F)(F)F)cn1 [Example 1-41],–,90%,–,–,–
N#Cc1c(Cl)ccc(Nc2ncc(Cl)cn2)c1-n1cc(C(F)(F)F)cn1 [Example 1-43],100%,–,–,100%,Post-emergence efficacy at 80 g/ha against AMARE in % (Amaranthus retroflexus [6]): 90%
Cc1ccc(Nc2ncc(Cl)cn2)c(-n2cc(C(F)(F)F)cn2)c1C#N [Example 1-45],–,–,–,–,Pre-emergence efficacy at 320 g/ha against STEME in % (Stellaria media [7]): 100%
Cc1ccc(Nc2ncc(F)cn2)c(-n2cc(C(F)(F)F)cn2)c1C#N [Example 1-46],90%,90%,–,–,Pre-emergence efficacy at 320 g/ha against DIGSA in % (Digitaria sanguinalis): 90%
N#Cc1cccc(Nc2ccc(F)cn2)c1-n1cc(C(F)(F)F)cn1 [Example 1-52],90%,90%,90%,–,–
N#Cc1cccc(Nc2ncc(Cl)cc2F)c1-n1cc(C(F)(F)F)cn1 [Example 1-54],100%,100%,–,90%,–

SMILES,Post-emergence efficacy at 320 g/ha against AMARE in % (Amaranthus retroflexus [1]),Post-emergence efficacy at 320 g/ha against VERPE in % (Veronica persica [2]),Pre-emergence efficacy at 320 g/ha against AMARE in % (Amaranthus retroflexus [3]),Post-emergence efficacy at 320 g/ha against KCHSC in % (Kochia scoparia [4]),further results
N#Cc1cc(Cl)cnc1Nc1cccc(C#N)c1-n1cc(C(F)(F)F)cn1 [Example 1-55],100%,100%,100%,90%,–
Fc1cccc(Nc2ccc(Cl)cn2)c1-c1cc(C(F)F)no1 [Example 1-56],90%,90%,–,–,–
Fc1cc(Cl)cnc1Nc1cccc(F)c1-c1cc(C(F)F)no1 [Example 1-57],–,–,–,90%,–
N#Cc1ccc(Nc2cccc(C#N)c2-n2cc(C(F)(F)F)cn2)nc1 [Example 1-58],90%,90%,–,–,–
N#Cc1cccc(Nc2ccc(Cl)cn2)c1-n1cc(C(F)(F)F)cn1 [Example 1-59],90%,100%,90%,90%,–
N#Cc1cccc(Nc2ncc(Cl)cn2)c1-n1cccn1 [Example 1-64],100%,90%,100%,100%,Post-emergence efficacy at 320 g/ha against STEME in % (Stellaria media [5]): 90%; Pre-emergence efficacy at 320 g/ha against DIGSA in % (Digitaria sanguinalis): 90%; Pre-emergence efficacy at 320 g/ha against KCHSC in % (Kochia scoparia [8]): 90%; Pre-emergence efficacy at 320 g/ha against SETVI in % (Setaria viridis): 100%
COCc1cnn(-c2c(C#N)cccc2Nc2ncc(F)cn2)c1 [Example 1-69],100%,100%,100%,–,Post-emergence efficacy at 320 g/ha against ABUTH in % (Abutilon theophrasti): 90%; Post-emergence efficacy at 320 g/ha against STEME in % (Stellaria media [5]): 100%; Pre-emergence efficacy at 320 g/ha against SETVI in % (Setaria viridis): 90%; Pre-emergence efficacy at 320 g/ha against STEME in % (Stellaria media [7]): 100%
FC(F)(F)CCCc1ccccc1Nc1ccc(Cl)cn1 [Example 1-70],100%,90%,–,–,–
N#Cc1cccc(Nc2ncc(Cl)cn2)c1-n1cc(Cl)cn1 [Example 1-72],100%,90%,100%,90%,Pre-emergence efficacy at 320 g/ha against DIGSA in % (Digitaria sanguinalis): 90%; Pre-emergence efficacy at 320 g/ha against KCHSC in % (Kochia scoparia [8]): 90%; Pre-emergence efficacy at 320 g/ha against SETVI in % (Setaria viridis): 90%; Pre-emergence efficacy at 320 g/ha against VERPE in % (Veronica persica [9]): 90%
N#Cc1cccc(Nc2ncc(Cl)cn2)c1-n1cc(Br)cn1 [Example 1-73],100%,90%,–,90%,–
FC(F)c1cc(-c2c(Cl)cccc2Nc2ccc(Cl)cn2)on1 [Example 1-74],–,–,–,–,Post-emergence efficacy at 80 g/ha against AMARE in % (Amaranthus retroflexus [6]): 80%; Post-emergence efficacy at 80 g/ha against VERPE in % (Veronica persica [10]): 80%
N#Cc1cc(Cl)cnc1Nc1ccccc1CCCCC(F)(F)F [Example 1-76],90%,90%,–,–,–
Fc1cnc(Nc2ccccc2-n2cc(C(F)(F)F)cn2)nc1 [Example 1-77],–,–,–,–,Post-emergence efficacy at 80 g/ha against VERPE in % (Veronica persica [10]): 80%
FC(F)(F)c1cnn(-c2ccccc2Nc2ncc(Cl)cn2)c1 [Example 1-78],–,90%,100%,–,Post-emergence efficacy at 320 g/ha against STEME in % (Stellaria media [5]): 90%; Pre-emergence efficacy at 320 g/ha against SETVI in % (Setaria viridis): 90%
Cc1cc(C)c(-c2cc(C(F)F)no2)c(Nc2ncc(Cl)cn2)n1 [Example 2-4],–,–,–,90%,Post-emergence efficacy at 320 g/ha against STEME in % (Stellaria media [5]): 100%; Pre-emergence efficacy at 320 g/ha against STEME in % (Stellaria media [7]): 90%
Cc1cc(C)c(-c2cc(C(F)F)no2)c(Nc2ccc(Cl)cn2)n1 [Example 2-7],–,90%,–,–,–
